Measurements: US20200038513A1, “MODULATORS OF FAK PROTEOLYSIS AND ASSOCIATED METHODS OF USE” (ARVINAS OPERATIONS, INC., priority 2018, published 2020)

Legend:
[1] = Pharmacokinetics of intraperitoneal or intravenous injection in CD1 mice; format: in vivo
Method: The pharmacokinetics of exemplary compounds 103, 107, 100, 101, and 102 was examined for intraperitoneal and intravenous administration. The desired serial concentrations of working solutions were achieved by diluting stock solution (1 mg/mL in DMSO) of analyte with methanol. In particular, 20 μL of working solutions (1, 2, 5, 10, 50, 100, 500, 1000, 2000 ng/mL) were added to 20 μL of the blank CD1 mice plasma to achieve calibration standards of 1-2000 ng/mL (1, 2, 5, 10, 50, 100, 500, 1000, 2000 ng/mL) in a total volume of 40 μL. Dose of IV and IP were diluted by 1000 fold and 10000 with methanol, 20 μL of the diluted dose solutions were added to 20 μL of the blank CD1 mice plasma to achieve dose samples. Next, 40 μL standards and 40 μL dose samples were added to 20 μL of IS (100 ng/mL) and 200 μL of acetonitrile for precipitating protein respectively. Then the samples were vortexed for 30 seconds. After centrifugation at 4 degree Celsius, 4000 rpm for 15 minutes, the supernatant was diluted 3 times with water. 10 μL of the diluted supernatant was injected into the LC/MS/MS system for quantitative analysis.
Exemplary compounds 103, 107, 100, 101, and 102 were administered intravenously (5 second injection of 10% HP-b-CD and 40 mM sodium acetate and 40 mM NaCl in water, pH4.5) or intraperitoneally (5% EtOH and 5% Solutol HS15 in D5W(ESD-2)) to 6-8 week old male CD1 mice (3 mice per treatment group for a total of 12 mice) at the time points indicated below in Table 7. The mice had free access to food and water.
Dorsal metatarsal vein samples (30 μL), except that the final sample was acquired via a heart puncture, were taken from the mice at the same the administration time points as shown in Table 7.

[2] = target: T1, Fak (Homo sapiens, UniProt Q05397); experiment: Fak degradation, immunoblotting in PC3 cells; format: cell-based; conditions: PC3 cells, 24 hour treatment; for Dmax: PC-3, degradation maximum, n = 3
T1 sequence (Q05397 whole entry): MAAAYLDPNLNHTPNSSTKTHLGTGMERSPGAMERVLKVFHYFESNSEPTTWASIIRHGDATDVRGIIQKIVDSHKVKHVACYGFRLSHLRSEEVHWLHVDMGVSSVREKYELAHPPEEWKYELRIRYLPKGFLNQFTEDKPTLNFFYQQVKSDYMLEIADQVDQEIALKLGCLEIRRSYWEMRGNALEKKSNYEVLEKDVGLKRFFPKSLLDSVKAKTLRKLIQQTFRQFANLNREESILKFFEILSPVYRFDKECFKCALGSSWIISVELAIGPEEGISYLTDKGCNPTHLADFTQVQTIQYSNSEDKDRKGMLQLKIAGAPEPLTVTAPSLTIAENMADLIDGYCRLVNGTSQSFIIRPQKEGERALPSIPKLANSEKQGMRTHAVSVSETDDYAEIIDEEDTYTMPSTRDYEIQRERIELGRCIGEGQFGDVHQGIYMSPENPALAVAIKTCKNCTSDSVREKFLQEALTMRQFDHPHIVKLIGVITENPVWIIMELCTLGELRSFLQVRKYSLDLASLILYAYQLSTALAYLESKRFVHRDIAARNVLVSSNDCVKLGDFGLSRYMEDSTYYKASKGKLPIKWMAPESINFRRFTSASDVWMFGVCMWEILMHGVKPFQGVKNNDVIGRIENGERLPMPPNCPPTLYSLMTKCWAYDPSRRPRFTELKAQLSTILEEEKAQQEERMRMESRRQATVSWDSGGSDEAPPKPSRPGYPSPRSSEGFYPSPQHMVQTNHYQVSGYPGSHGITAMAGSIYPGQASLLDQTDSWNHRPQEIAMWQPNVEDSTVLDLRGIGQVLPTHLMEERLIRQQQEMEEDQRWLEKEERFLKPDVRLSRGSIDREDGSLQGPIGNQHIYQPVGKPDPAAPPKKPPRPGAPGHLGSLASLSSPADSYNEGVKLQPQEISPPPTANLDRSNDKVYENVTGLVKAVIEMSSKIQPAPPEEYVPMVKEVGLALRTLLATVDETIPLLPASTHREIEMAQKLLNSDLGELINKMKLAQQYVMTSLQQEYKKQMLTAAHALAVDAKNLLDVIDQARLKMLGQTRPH
Method: PC3 cells were cultured in F12-K (Kaighn's Modification of Ham's F-12 Medium), supplemented with 10% fetal bovine serum (FBS) and 1% penicillin-streptomycin at 37° C. and 5% CO2.
If not indicated otherwise, cells were seeded and grown to 80% confluency and were treated with compound or control for 24 hours. […] After 20 minutes the mixture was spun down at 16,000×g for 10 minutes at 4° C. to pellet insoluble materials. Protein concentration of supernatants were determined via BCA assay (Thermo Fisher) before addition of NuPAGE sample buffer containing 5% β-Me and boiling at 95° C. for 10 minutes. Equal amounts of protein were subjected to SDS-PAGE and subsequent electrophoretic transfer onto nitrocellulose membrane. […] Immunoblots were developed using enhanced chemiluminescence and visualized using a Bio-Rad Chemi-Doc MP Imaging System and quantitated with Image Lab v.5.2.1 software (Bio-Rad Laboratories). Data analysis and statistics was performed using Prism 7.0 (GraphPad).
Examination of Target Protein (Fak) Degradation.

[3] = target: T1, Fak; experiment: Kinase activity assay (Reaction Biology Corp.); format: biochemical; design: purchased Reaction Biology Corp. (contract assay service); conditions: 10 μM ATP, n = 2
Method: Reactions were carried out at 10 μM ATP. IC50 values were calculated using Prism 7.0 (GraphPad).

Compound	AUClast (h * ng/mL) IP ([1]; IP)	T ½ (h) IP ([1]; IP)	AUClast (h * ng/mL) IV ([1]; IV)	T ½ (h) IV ([1]; IV)	Fak degradation / effect on Fak levels (in words) [2]	Dmax [2]	IC50 [3]	DC50 ([2]; half-maximal degradation concentration)
N-(2-((2-(2,6-dioxopiperidin-3-yl)-1,3-dioxoisoindolin-4-yl)oxy)ethyl)-3-(3-(4-((4-((3-(N-methylmethylsulfonamido)benzyl)amino)-5-(trifluoromethyl)pyrimidin-2-yl)amino)phenoxy)propoxy)propanamide [Compound 108]	208 ng·h/mL	1.10 h	3.80 ng·h/mL	0.058 h				
Cc1ncsc1-c1ccc(CNC(=O)[C@@H]2C[C@H](O)CN2C(=O)[C@@H](NC(=O)CCOCCOc2ccc(Nc3ncc(C(F)(F)F)c(NCc4cccc(N(C)S(C)(=O)=O)c4)n3)cc2)C(C)(C)C)cc1 [Compound 106, (2S,4S)-1-((S)-3,3-dimethyl-2-(3-(2-(4-((4-((3-(N-methylmethylsulfonamido)benzyl)amino)-5-(trifluoromethyl)pyrimidin-2-yl)amino)phenoxy)ethoxy)propanamido)butanoyl)-4-hydroxy-N-(4-(4-methylthiazol-5-yl)benzyl)pyrrolidine-2-carboxamide]					no Fak degradation	0%	11.2 nM	
Cc1ncsc1-c1ccc(CNC(=O)[C@@H]2C[C@@H](O)CN2C(=O)[C@@H](NC(=O)CCOCCOCCOCCOCCOc2ccc(Nc3ncc(C(F)(F)F)c(NCc4cccc(N(C)S(C)(=O)=O)c4)n3)cc2)C(C)(C)C)cc1 [Compound 105, (2S,4R)-1-((S)-17-(tert-butyl)-1-(4-((4-((3-(N-methylmethylsulfonamido)benzyl)amino)-5-(trifluoromethyl)pyrimidin-2-yl)amino)phenoxy)-15-oxo-3,6,9,12-tetraoxa-16-azaoctadecan-18-oyl)-4-hydroxy-N-(4-(4-methylthiazol-5-yl)benzyl)pyrrolidine-2-carboxamide]						91%	6.1 ± 0.1 nM	48.1 nM
